Experimental data as given in US20160368943A1, “SUBSTITUTED PURINE COMPOUNDS” (EPIZYME, INC., priority 2013, published 2016).
Where two headings read alike, the source gives them in different places.

How the values were obtained:
[1] = system: MLL-rearranged leukemia xenograft; settings: cited from earlier work
[2] = Hepatocyte stability, human; format: in vitro ADME
Procedure: (§1) Human, Beagle dog, Sprague-Dawley rat, and CD-1 mouse cryopreserved hepatocytes were obtained from XenoTech and stored at −150° C. until use. The hepatocytes were thawed and prepared according to the vendor's instructions, pooled into Krebs Henseleit buffer (KHB, pH 7.4), and kept on ice prior to initiating an experiment. […] The reaction mixture was incubated in a shaking water bath at 37° C. Aliquots of the incubation solutions were sampled at 0, 15, 30, 60, and 120 minutes. The reaction was immediately terminated by the addition of three volumes of ice-cold acetonitrile containing 0.1% formic acid and internal standards. After centrifugation at 1640×g for 10 minutes, the supernatants were transferred into HPLC vials, and the test compound was analyzed by LC-MS/MS. Positive controls, testosterone (20 μM) and 7-hydroxycoumarin (100 μM), were performed in parallel to confirm the enzyme activities of the hepatocytes used.
(§2) Experimental half-lives were transformed to the corresponding intrinsic clearance values and subsequently scaled to predicted in vivo clearance values, using the well-stirred model as previously described (Houston, Biochemical Pharmacology 47(9): 1469-1479, 1994; Obach, Drug Metabolism and Disposition 27(11): 1350-1359, 1999), with appropriate species-specific scaling factors (Barter et al., Current Drug Metabolism 8(1): 33-45, 2007).

[3] = Pharmacokinetic study in dog; format: in vivo, Beagle dog; settings: 1 mg/kg
Procedure: IV doses were administered by a single intravenous infusion over 1 minute into the cephalic vein in a 10% ethanol and 90% saline vehicle. At designated time points (predose, 0.083, 0.25, 0.5, 1, 2, 4, 8 and 24 h p.d.), the animals were restrained manually, and approximately 0.5 mL blood per time point was collected from non-injected cephalic vein into pre-cold EDTA-K2 tubes. Blood samples were put on wet ice and centrifuged at 4° C. to obtain plasma within 15 minutes of sample collection. The levels of Compound A were quantitated in dog plasma by LC-MS/MS analysis. […] Typically, samples were injected onto an LC-MS/MS system using a Waters BEH Phenyl column. The aqueous mobile phase was water with 0.1% NH4OH (A), and the organic mobile phase was acetonitrile with 0.1% NH4OH (B). The gradient was as follows: 37% B for the first 0.2 min, increased to 44% B from 0.2 to 0.6 min, maintained at 44% B for 0.5 min, and decreased to 37% B within 0.05 min. The injection volume was 2 uL, and the total run time was 1.5 min with a flow rate of 0.6 mL/min. […] The ionization was conducted in the positive ion mode using the MRM transition [M+H]+m/z 563.5 parent ion to m/z 326.3 daughter ion, incorporating a turbo-ionspray interface. Eight to ten calibration standards were prepared in blank plasma of the relevant species providing a typical standard curve concentration range of 5-500 ng/mL. Pharmacokinetic parameters were calculated by noncompartmental methods using WinNonlin (version 5.3; Pharsight, St. Louis, Mo.). Parameters are presented as mean±S.D.

[4] = Plasma protein binding by equilibrium dialysis, rat; format: in vitro ADME; settings: male, Sprague-Dawley, pH 7.4, read-out: Plasma free fraction
Procedure: (§3) Plasma protein binding was assessed by equilibrium dialysis, utilizing the HT-dialysis cell format with a cellulose semi permeable membrane (molecular weight cut off of 5000 Da). Plasma was warmed to 37° C. and adjusted to pH 7.4 before use. Male Sprague-Dawley rat, male Beagle dog, male CD-1 mouse and mixed sex human plasma was used for the studies. A 5 μM test compound solution was prepared in isotonic phosphate buffer and rat, dog, mouse and human plasma (final DMSO concentration of 0.5%). The plasma-containing solution was introduced to one side of the membrane, and the plasma-free on the other. Incubations were performed for 2-16 hours in duplicate in order to allow the compound to reach equilibrium. Haloperidol was included as the control compound for each species. At the end of the equilibration time the cells were emptied. Following protein precipitation, the samples were centrifuged and analyzed by LC-MS/MS. The samples from the protein containing compartment were quantified using calibration standards prepared in plasma and the protein free compartments were quantified using calibration standards prepared in dialysis buffer.

Plasma stability, mouse = format: in vitro ADME, CD-1 mouse; settings: CD-1, pooled plasma, 37° C., read-out: Half-life in ex vivo blood plasma
From the text: Samples were quenched in methanol and analyzed by LC-MS/MS analysis.

[5] = Liver microsome stability, dog; format: in vitro ADME
Procedure: The final incubation volume was 50 μL. Control incubations were included for each species where 0.1 M phosphate buffer pH 7.4 was added instead of NADPH (minus NADPH). Two control compounds were included for each species. […] The control (minus NADPH) was incubated for 45 minutes only. The reactions were stopped by transferring 25 μL of incubate to 50 μL methanol at the appropriate time points. The incubation plates were centrifuged at 2,500 rpm for 20 minutes at 4° C. to aid protein precipitation. Experimental half-lives were transformed to the corresponding intrinsic clearance values and subsequently scaled to predicted in vivo clearance values, using the well-stirred model as previously described (Houston, Biochemical Pharmacology 47(9): 1469-1479, 1994; Obach, Drug Metabolism and Disposition 27(11): 1350-1359, 1999), with appropriate species-specific scaling factors (Barter et al., Current Drug Metabolism 8(1): 33-45, 2007).

[6] = Hepatocyte stability, rat; format: in vitro ADME, Sprague-Dawley rat
Procedure: as §1, §2

[7] = Plasma protein binding by equilibrium dialysis, mouse; format: in vitro ADME, CD-1 mouse; settings: male, CD-1, pH 7.4, read-out: Plasma free fraction
Procedure: as §3

[8] = male, plasma, Beagle dog, IV bolus

In the case of CC(C)N(C[C@H]1O[C@@H](n2cnc3c(N)ncnc32)[C@H](O)[C@@H]1O)[C@H]1C[C@@H](CCc2nc3cc(C(C)(C)C)ccc3[nH]2)C1 [Compound A, (2R,3R,4S,5R)-2-(6-amino-9H-purin-9-yl)-5-((((1r,3S)-3-(2-(5-(tert-butyl)-1H-benzo[d]imidazol-2-yl)ethyl)cyclobutyl)(isopropyl)amino)methyl)tetrahydrofuran-3,4-diol], the tumor response ([1]; continuous intravenous (IV) infusion, rat xenograft) is listed as “complete tumor regressions”, the “weight loss or signs of toxicity” value ([1]; rat, in vivo, iv) is listed as “no significant weight loss or signs of toxicity” and the “Scaled Hepatic CL from hepatocytes” value [2] is listed as less than 3 mL/min/kg. It also gave a CL ([3]; Beagle dog, IV bolus) of 18.7 ± 1.7 mL/min/kg, a clearance ([3]; male, beagle, dog, plasma, iv, Beagle dog, IV bolus) of 19 mL/min/kg and a Vd ([3]; male, beagle, dog, plasma, iv, Beagle dog, IV bolus, read-out: VDss) of 2.44 L/kg. For the same molecule, the Vd ([3]; male, beagle, dog, plasma, iv, dog, read-out: Unbound VDss) was 10.4 L/kg, the AUC(0-inf) [3, 8] was 1.6 ± 0.15 µM·h and the AUC(0-t) [3, 8] was 1.55 ± 0.16 µM·h. The Cmax [3, 8] was 5.06 ± 0.6 µM, the MRT [3, 8] was 2.17 ± 0.89 h and the Tmax [3, 8] was 4.98 min. For the same molecule, the half-life [3, 8] was 13.6 h, the fraction unbound at 5 μM [4] was 0.272 and the half-life at 1 μM (Plasma stability, mouse) was greater than 2 h. For the same molecule, the microsomal CLint at 3 μM ([5]; liver microsomes, pH 7.4, NADPH, 3 μM) was 39 µL/min/mg, the “Scaled Hepatic CL from liver microsomes” value ([5]; well-stirred model) was 20 mL/min/kg and the “Scaled Hepatic CL from hepatocytes” value [6] was 7 mL/min/kg. It also gave a fraction unbound at 5 μM [7] of 0.138.
